Test results reported in the supplement of paper PMC10307832.

Tests used:
Experiment in all cases: relative viability (nuclei count vs DMSO), 5 days (fraction); higher = more cells survive
Bortezomib + Tozasertib = compound: CC(C)C[C@H](NC(=O)[C@H](Cc1ccccc1)NC(=O)c1cnccn1)B(O)O [Bortezomib] + Cc1cc(Nc2cc(N3CCN(C)CC3)nc(Sc3ccc(NC(=O)C4CC4)cc3)n2)n[nH]1 [Tozasertib] (partner 0.1 µM)
How it was run: (§1)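 Five library-drug doses in √10 steps were combined with a fixed anchor-drug dose, or a single drug was given alone, by pin tool to lung cancer cell lines in 1536-well plates the day after seeding. Nuclei were stained and counted after 5 days. Relative viability is the nuclei count in treated wells over that in vehicle wells, taken as the median of duplicate plates.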

[1] = compound: CC1=CC(=NN1)NC2=CC(=NC(=N2)/C=C/C3=CC=CC=C3)N4CCN(CC4)C + CC1(C)CCC(c2ccc(Cl)cc2)=C(CN2CCN(c3ccc(C(=O)NS(=O)(=O)c4ccc(N[C@H](CCN5CCOCC5)CSc5ccccc5)c(S(=O)(=O)C(F)(F)F)c4)cc3)CC2)C1 [Navitoclax] (partner 0.5 µM)
How it was run: as §1

Obatoclax + Palbociclib = compound: COC1=CC(c2cc3ccccc3[nH]2)=N/C1=C\c1[nH]c(C)cc1C [Obatoclax] + CC(=O)c1c(C)c2cnc(Nc3ccc(N4CCNCC4)cn3)nc2n(C2CCCC2)c1=O [Palbociclib] (partner 0.5 µM)
How it was run: as §1

Row | Cell Line | relative viability (Bortezomib + Tozasertib; first compound 0.0002 µM) | relative viability (Bortezomib + Tozasertib; first compound 0.000632 µM) | relative viability (Bortezomib + Tozasertib; first compound 0.002 µM) | relative viability (Bortezomib + Tozasertib; first compound 0.006325 µM) | relative viability (Bortezomib + Tozasertib; first compound 0.02 µM) | relative viability ([1]; first compound 0.08 µM) | relative viability ([1]; first compound 0.253 µM) | relative viability ([1]; first compound 0.8 µM) | relative viability ([1]; first compound 2.53 µM) | relative viability ([1]; first compound 8 µM) | relative viability (Obatoclax + Palbociclib; first compound 0.01 µM) | relative viability (Obatoclax + Palbociclib; first compound 0.03162 µM) | relative viability (Obatoclax + Palbociclib; first compound 0.1 µM) | relative viability (Obatoclax + Palbociclib; first compound 0.3162 µM) | relative viability (Obatoclax + Palbociclib; first compound 1 µM)
1 | HCC-366 | 0.13 | 0.115 | 0.094 | 0.0548 | 0.0273 | 1.07 | 1.19 | 0.989 | 0.371 | 0.0097 | 0.401 | 0.34 | 0.311 | 0.304 | 0.203
2 | HCC-78 | 0.488 | 0.331 | 0.41 | 0.236 | 0.209 | 0.799 | 0.918 | 0.823 | 0.568 | 0.126 | 0.438 | 0.45 | 0.506 | 0.479 | 0.457
3 | PC-14 | 0.415 | 0.612 | 0.562 | 0.113 | 0.0502 | 0.974 | 1.01 | 0.928 | 0.324 | 0.0445 | 0.453 | 0.489 | 0.411 | 0.0534 | 0.055
4 | NCI-H2087 | 0.236 | 0.276 | 0.19 | 0.0648 | 0.0487 | 0.974 | 0.923 | 1.11 | 0.247 | 0.122 | 0.212 | 0.216 | 0.183 | 0.231 | 0.116
5 | HOP-62 | 0.354 | 0.391 | 0.292 | 0.0719 | 0.0538 | 0.903 | 1.27 | 1.03 | 1 | 0.124 | 0.425 | 0.393 | 0.415 | 0.499 | 0.455
6 | EKVX | 0.419 | 0.437 | 0.342 | 0.2 | 0.105 | 0.946 | 1.24 | 1.03 | 0.755 | 0.131 | 0.438 | – | 0.393 | 0.388 | 0.386
7 | EMC-BAC-2 | 0.249 | 0.274 | 0.403 | 0.171 | 0.174 | 1.1 | 1.11 | 1.07 | 0.719 | 0.266 | 0.502 | 0.494 | 0.474 | 0.556 | 0.432
8 | HARA | 0.0998 | 0.0941 | 0.0961 | 0.0503 | 0.061 | 1.17 | 1.16 | 1.13 | 0.982 | 0.238 | 0.314 | 0.224 | 0.285 | 0.242 | 0.216
9 | LU99A | 0.279 | 0.29 | 0.247 | 0.252 | 0.17 | 0.766 | 0.781 | 0.57 | 0.25 | 0.125 | 0.426 | 0.377 | – | 0.402 | 0.4
10 | LK-2 | 0.182 | 0.191 | 0.173 | 0.157 | 0.161 | 0.821 | 1.03 | 0.711 | 0.247 | 0.133 | 0.661 | 0.728 | 0.764 | – | 0.825
11 | NCI-H441 | 0.66 | 0.799 | 0.383 | 0.186 | 0.191 | 0.704 | 0.503 | 0.302 | 0.187 | 0.122 | 0.231 | 0.214 | 0.261 | 0.167 | 0.155
12 | NCI-H23 | 0.306 | 0.366 | 0.352 | 0.111 | 0.107 | 0.79 | 0.909 | 0.867 | 0.364 | 0.15 | 0.49 | 0.548 | 0.496 | 0.475 | 0.39
13 | NCI-H647 | 0.297 | 0.19 | 0.203 | 0.0209 | 0.0248 | 1.05 | 1.38 | 1.07 | 0.0912 | 0.0329 | 0.458 | 0.321 | 0.398 | 0.151 | 0.0783
14 | 201T | 0.863 | 0.968 | 1.01 | 0.715 | 0.278 | 1.2 | 1.21 | 1.19 | 1.13 | 1.12 | 0.382 | 0.363 | 0.348 | 0.348 | 0.357
15 | NCI-H1734 | 0.263 | 0.295 | 0.276 | 0.133 | 0.093 | 0.837 | 0.81 | 0.8 | 0.331 | 0.108 | 0.3 | 0.338 | 0.337 | 0.32 | 0.303
